From patent US10597388B2, “Pyridazinone herbicides” (FMC CORPORATION, priority 2014, dated 2020)

Legend:
Experiment in all cases: Test C greenhouse herbicide test, pre- and postemergence
Assay type in all cases: in vivo
[1] = test system: waterhemp (common waterhemp, Amaranthus rudis)
In short: (§1)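 Greenhouse pots; pre-em on seeded loam:sand blend, post-em on 2–18 cm plants (1–4 leaf) in sphagnum peat/vermiculite medium. Formulation: non-phytotoxic solvent + surfactant. Read-out: visual % control (0–100) vs controls at 13–15 d.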

[2] = test system: barnyardgrass (Echinochloa crus-galli)
In short: as §1

[3] = test system: crabgrass, large (large crabgrass, Digitaria sanguinalis)
In short: as §1

soybean (Glycine max) = test system: soybean (Glycine max)
In short: as §1

[4] = test system: foxtail, giant (giant foxtail, Setaria faberii)
In short: as §1

[5] = test system: nutsedge, yellow (yellow nutsedge, Cyperus esculentus)
In short: as §1

[6] = test system: morningglory (Ipomoea coccinea)
In short: as §1

[7] = test system: lambsquarters (Chenopodium album)
In short: as §1

[8] = test system: blackgrass (Alopecurus myosuroides)
In short: as §1

[9] = test system: pigweed (Amaranthus retroflexus)
In short: as §1

[10] = test system: wheat (winter wheat, Triticum aestivum)
In short: as §1

corn (Zea mays) = test system: corn (Zea mays)
In short: as §1

[11] = test system: velvetleaf (Abutilon theophrasti)
In short: as §1

[12] = test system: galium (catchweed bedstraw, Galium aparine)
In short: as §1

[13] = test system: ryegrass, Italian (Italian ryegrass, Lolium multiflorum)
In short: as §1

[14] = Postemergence, 31 g ai/ha, scale 0 to 100 (0 no effect, 100 complete control)
[15] = Postemergence, 62 g ai/ha, 0 to 100 scale (0 no effect, 100 complete control)
[16] = Postemergence, 250 g ai/ha, scale 0 to 100, 0 no effect, 100 complete control, 13 to 15 d
[17] = Preemergence, 31 g ai/ha, scale 0 to 100, 0 is no effect, 100 is complete control
[18] = Preemergence, 62 g ai/ha, scale 0 to 100, 0 is no effect, 100 is complete control
[19] = Preemergence, 125 g ai/ha, scale 0 to 100, 0 is no effect, 100 is complete control
[20] = Preemergence, 250 g ai/ha, scale 0 to 100, 0 no effect, 100 complete control
[21] = postemergence, 125 g ai/ha, scale 0 to 100, 0 no effect, 100 complete control

## CCC(=O)Oc1c(C)nn(C)c(=O)c1-c1ccc(Br)c2ccccc12 [Compound 134]
[1]; [14]
  Plant response rating, Waterhemp: 98
[1]; [15]
  Waterhemp plant response rating: 100
[1]; [16]
  Plant response rating, Waterhemp: 100
[1]; [17]
  Plant response rating, Waterhemp: 90
[1]; [18]
  Plant response rating, Waterhemp: 98
[1]; [19]
  Plant response rating, Waterhemp: 98
[1]; [20]
  Waterhemp plant response rating: 100
[1]; [21]
  Waterhemp plant response rating: 100
[2]; [14]
  Plant response rating, Barnyardgrass: 10
[2]; [15]
  Barnyardgrass plant response rating: 20
[2]; Postemergence, 125 g ai/ha, scale 0 to 100, 0 is no effect, 100 is complete control
  Plant response rating, Barnyardgrass: 40
[2]; [16]
  Plant response rating, Barnyardgrass: 55
[2]; [17]
  Plant response rating, Barnyardgrass: 5
[2]; [18]
  Plant response rating, Barnyardgrass: 40
[2]; [19]
  Plant response rating, Barnyardgrass: 70
[2]; [20]
  Barnyardgrass plant response rating: 90
[3]; [14]
  Plant response rating, Crabgrass, Large: 5
[3]; [15]
  Crabgrass, Large plant response rating: 10
[3]; [16]
  Plant response rating, Crabgrass, Large: 40
[3]; [17]
  Plant response rating, Crabgrass, Large: 5
[3]; [18]
  Plant response rating, Crabgrass, Large: 30
[3]; [19]
  Plant response rating, Crabgrass, Large: 40
[3]; [20]
  Crabgrass, Large plant response rating: 60
[3]; [21]
  Crabgrass, Large plant response rating: 15
Soybean (Glycine max); [14]
  Plant response rating, Soybean: 75
Soybean (Glycine max); [15]
  Soybean plant response rating: 70
Soybean (Glycine max); [16]
  Plant response rating, Soybean: 85
Soybean (Glycine max); [17]
  Plant response rating, Soybean: 40
Soybean (Glycine max); [18]
  Plant response rating, Soybean: 45
Soybean (Glycine max); [19]
  Plant response rating, Soybean: 65
Soybean (Glycine max); [20]
  Soybean plant response rating: 75
Soybean (Glycine max); [21]
  Soybean plant response rating: 70
[4]; [14]
  Plant response rating, Foxtail, Giant: 15
[4]; [15]
  Foxtail, Giant plant response rating: 25
[4]; [16]
  Plant response rating, Foxtail, Giant: 45
[4]; [17]
  Plant response rating, Foxtail, Giant: 25
[4]; [18]
  Plant response rating, Foxtail, Giant: 75
[4]; [19]
  Plant response rating, Foxtail, Giant: 70
[4]; [20]
  Foxtail, Giant plant response rating: 80
[4]; [21]
  Foxtail, Giant plant response rating: 35
[5]; [14]
  Plant response rating, Nutsedge, Yellow: 75
[5]; [15]
  Nutsedge, Yellow plant response rating: 80
[5]; [16]
  Plant response rating, Nutsedge, Yellow: 90
[5]; [17]
  Plant response rating, Nutsedge, Yellow: 30
[5]; [18]
  Plant response rating, Nutsedge, Yellow: 45
[5]; [19]
  Plant response rating, Nutsedge, Yellow: 95
[5]; [20]
  Nutsedge, Yellow plant response rating: 90
[5]; [21]
  Nutsedge, Yellow plant response rating: 95
[6]; [14]
  Plant response rating, Morningglory: 98
[6]; [15]
  Morningglory plant response rating: 100
[6]; [16]
  Plant response rating, Morningglory: 100
[6]; [17]
  Plant response rating, Morningglory: 75
[6]; [18]
  Plant response rating, Morningglory: 90
[6]; [19]
  Plant response rating, Morningglory: 95
[6]; [20]
  Morningglory plant response rating: 100
[6]; [21]
  Morningglory plant response rating: 100
[7]; [14]
  Plant response rating, Lambsquarters: 100
[7]; [15]
  Lambsquarters plant response rating: 98
[7]; [16]
  Plant response rating, Lambsquarters: 100
[7]; [17]
  Plant response rating, Lambsquarters: 75
[7]; [18]
  Plant response rating, Lambsquarters: 90
[7]; [19]
  Plant response rating, Lambsquarters: 100
[7]; [20]
  Lambsquarters plant response rating: 100
[7]; [21]
  Lambsquarters plant response rating: 100
[8]; [14]
  Plant response rating, Blackgrass: 50
[8]; [15]
  Blackgrass plant response rating: 45
[8]; [16]
  Plant response rating, Blackgrass: 98
[8]; [17]
  Plant response rating, Blackgrass: 20
[8]; [18]
  Plant response rating, Blackgrass: 40
[8]; [19]
  Plant response rating, Blackgrass: 40
[8]; [20]
  Blackgrass plant response rating: 75
[8]; [21]
  Blackgrass plant response rating: 50
[9]; [14]
  Plant response rating, Pigweed: 80
[9]; [15]
  Pigweed plant response rating: 100
[9]; [16]
  Plant response rating, Pigweed: 100
[9]; [17]
  Plant response rating, Pigweed: 75
[9]; [18]
  Plant response rating, Pigweed: 100
[9]; [19]
  Plant response rating, Pigweed: 100
[9]; [20]
  Pigweed plant response rating: 100
[9]; [21]
  Pigweed plant response rating: 100
[10]; [14]
  Plant response rating, Wheat: 30
[10]; [15]
  Wheat plant response rating: 50
[10]; [16]
  Plant response rating, Wheat: 90
[10]; [17]
  Plant response rating, Wheat: 0
[10]; [18]
  Plant response rating, Wheat: 0
[10]; [19]
  Plant response rating, Wheat: 15
[10]; [20]
  Wheat plant response rating: 40
[10]; [21]
  Wheat plant response rating: 65
Corn (Zea mays); [14]
  Plant response rating, Corn: 5
Corn (Zea mays); [15]
  Corn plant response rating: 10
Corn (Zea mays); [16]
  Plant response rating, Corn: 15
Corn (Zea mays); [17]
  Plant response rating, Corn: 0
Corn (Zea mays); [18]
  Plant response rating, Corn: 0
Corn (Zea mays); [19]
  Plant response rating, Corn: 10
Corn (Zea mays); [20]
  Corn plant response rating: 5
Corn (Zea mays); [21]
  Corn plant response rating: 10
[11]; [14]
  Plant response rating, Velvetleaf: 80
[11]; [15]
  Velvetleaf plant response rating: 90
[11]; [16]
  Plant response rating, Velvetleaf: 100
[11]; [17]
  Plant response rating, Velvetleaf: 75
[11]; [18]
  Plant response rating, Velvetleaf: 90
[11]; [19]
  Plant response rating, Velvetleaf: 90
[11]; [20]
  Velvetleaf plant response rating: 100
[11]; [21]
  Velvetleaf plant response rating: 100
[12]; [14]
  Plant response rating, Galium: 95
[12]; [15]
  Galium plant response rating: 95
[12]; [16]
  Plant response rating, Galium: 100
[12]; [17]
  Plant response rating, Galium: 100
[12]; [18]
  Plant response rating, Galium: 98
[12]; [19]
  Plant response rating, Galium: 98
[12]; [20]
  Galium plant response rating: 98
[12]; [21]
  Galium plant response rating: 100
[13]; [14]
  Plant response rating, Ryegrass, Italian: 5
[13]; [15]
  Ryegrass, Italian plant response rating: 15
[13]; [16]
  Plant response rating, Ryegrass, Italian: 40
[13]; [17]
  Plant response rating, Ryegrass, Italian: 98
[13]; [18]
  Plant response rating, Ryegrass, Italian: 100
[13]; [19]
  Plant response rating, Ryegrass, Italian: 100
[13]; [20]
  Ryegrass, Italian plant response rating: 100
[13]; [21]
  Ryegrass, Italian plant response rating: 20
